Source: patent publication US20070027127A1, “Treatment of inflammatory oral diseases with a combination of inhibitors of TNF-alpha and immunosuppressive agents” (priority 2000, published 2007)

System: major RAS (recurrent aphthous stomatitis) mouth ulcers
Assay: Clinical example: treatment of a human patient with longstanding major RAS
Format: in vivo
Method: There follows a description of the successful treatment of a human patient according to the invention.
The patient was a healthy person who had longstanding major RAS. The ulcers were located throughout the patient's mouth and oropharynx. […] The patient, prior to this visit, had been treated with numerous forms of conventional therapy, including systemic steroids and other pharmaceutical agents. All treatments had failed.
The patient was treated according to the invention as follows. The patient was given PTX tablets (one 400 mg tablet per day), combined with a rinse of the topical steroid DECADRON®.

CC(=O)CCCCn1c(=O)c2c(ncn2C)n(C)c1=O [PTX, 3,7-Dihydro-3,7-dimethyl-1-(5-oxohexyl)-1H-purine-2,6-dione]
Mouth ulcer status reported by the patient (approximately six months after initial treatment with PTX tablets plus DECADRON® rinse, then topical DECADRON® rinse on individual lesions): completely without mouth ulcers for the first time in eight years | Resolution of the patient's major lesions (one patient, major RAS, PTX tablets (one 400 mg tablet per day) combined with a DECADRON® rinse, prior conventional therapies failed): completely resolved all of the patient's major lesions
